Read-outs that look alike come from different tables or passages of the source.
Test: Phase I dose-escalating study, plasma pharmacokinetics in patients with solid tumor
Format: in vivo, human
Settings: for concentration at 6 h / concentration at 8 h / concentration at 10 h / concentration at 0 h / concentration at 1 h / concentration at 2 h / concentration at 3 h / concentration at 4 h / concentration at 20 h / concentration at 24 h / concentration at 48 h / concentration at 72 h / concentration at 96 h / concentration at 144 h / AUC(0-t) / Cmax / Tmax / half-life: human, plasma; for concentration at 6 h: nominal time 6 h; for concentration at 8 h: nominal time 8 h; for concentration at 10 h: nominal time 10 h; for concentration at 0 h: nominal time 0 h; for concentration at 1 h: nominal time 1 h; for concentration at 2 h: nominal time 2 h; for concentration at 3 h: nominal time 3 h; for concentration at 4 h: nominal time 4 h; for concentration at 20 h: nominal time 20 h; for concentration at 48 h: nominal time 48 h; for concentration at 72 h: nominal time 72 h; for concentration at 96 h: nominal time 96 h; for concentration at 144 h: nominal time 144 h; for AUC(0-t): read-out: AUC(0-24), mean (% CV); for Cmax: read-out: Cmax, mean (% CV); for Tmax: read-out: tmax, mean (% CV); for half-life: read-out: t½, mean (% CV) (converted)
Procedure: Cmax values, or maximum total plasma concentrations, of a compound of formula 1 can be measured according to techniques well known to those skilled in the art. For example, after a compound of formula 1 has been administered to a mammal, blood samples can be taken at fixed time points over a period of time (e.g. 24 hours) and the serum or plasma concentration of compound of formula 1 can be measured using standard analytical techniques known in the art. In vivo determinations Cmax can then be made by plotting the serum or plasma concentration of compound of formula 1 along the ordinate (y-axis) against time along the abscissa (x-axis).
The maleate salt of compound 1 was administered to human patients with solid tumor malignancies not amenable to conventional therapies in a Phase I dose-escalating multicenter study. The types of tumor malignancies included colorectal carcinoma, renal cell carcinoma, esophageal carcinoma, thymus carcinoma, mastocytosis, lung cancer and multiple endocrine neoplasia type II. Patients were treated in cohorts of 6 with escalating QD (once per day) doses of the maleate salt of compound 1 under fasting conditions. Each study cycle of 5 weeks consisted of 4 weeks of treatment followed by 1 week of rest (4/1 schedule), or continuous dosing without any rest period.
Full pharmacokinetic profiles were collected on Cycle 1 Day 1 (C1D1), Cycle 1 Day 28 (C1D28), and Cycle 2 Day 28 (C2D28). Preliminary pharmacokinetic parameters for the first 44 patients, i.e. the first 7 dosing groups, were estimated using nominal collection times and quality-controlled, non-quality assured bioanalytical data. The dosage amounts in Table 1A and Table 1B are free base equivalent amounts.

[1] = 25 mg QD, 25 mg QD 4/1 (n = 6), read-out: Mean plasma concentration following the last dose on cycle 1 day 28
[2] = 25 mg, 25 mg QD 4/1 (n = 6), read-out: Mean plasma concentration following the last dose on cycle 1 day 28
[3] = 25 mg, 25 mg QD (4/1), C1D1 (n = 6)
[4] = 25 mg, 25 mg QD (4/1), C1D28 (n = 6)
[5] = 25 mg, 25 mg QD (4/1), C2D28 (n = 5)
[6] = 50 mg QD, 50 mg QD 4/1 (n = 5), read-out: Mean plasma concentration following the last dose on cycle 1 day 28
[7] = 50 mg, 50 mg QD 4/1 (n = 5), read-out: Mean plasma concentration following the last dose on cycle 1 day 28
[8] = 50 mg, 50 mg QD (4/1), C1D1 (n = 6)
[9] = 50 mg, 50 mg QD (4/1), C1D28 (n = 5)
[10] = 50 mg, 50 mg QD (4/1), C2D28 (n = 3)
[11] = 100 mg QD, 100 mg QD 4/1 (n = 6), read-out: Mean plasma concentration following the last dose on cycle 1 day 28
[12] = 100 mg QD, 100 mg QD Continuous (n = 4), read-out: Mean plasma concentration following the last dose on cycle 1 day 28
[13] = 100 mg, 100 mg QD 4/1 (n = 6), read-out: Mean plasma concentration following the last dose on cycle 1 day 28
[14] = 100 mg, 100 mg QD (4/1), C1D1 (n = 7)
[15] = 100 mg, 100 mg QD (4/1), C1D28 (n = 6)
[16] = 100 mg, 100 mg QD (4/1), C2D28 (n = 4)
[17] = 100 mg, 100 mg QD (continuous), C1D1 (n = 6)
[18] = 100 mg, 100 mg QD (continuous), C1D28 (n = 6)
[19] = 100 mg, 100 mg QD (continuous), C2D28 (n = 4)
[20] = 100 mg, 100 mg QD Continuous (n = 4), read-out: Mean plasma concentration following the last dose on cycle 1 day 28

Cc1[nH]c(/C=C2\C(=O)Nc3ccc(F)cc32)c(C)c1C(=O)NC[C@H](O)CN1CCOCC1 [compound 1, 5-[(Z)-(5-fluoro-2-oxo-1,2-dihydro-3H-indol-3-ylidene)methyl]-N-[(2S)-2-hydroxy-3-morpholin-4-ylpropyl]-2,4-dimethyl-1H-pyrrole-3-carboxamide]
drug accumulation in plasma from cycle 1 to cycle 2 (100 mg QD continuous, Cmax and AUC0-24 of C1D28 vs C2D28): no drug accumulation | time of the longer elimination phase after dosing (4/1 schedule, after the last dose on Day 28): about 72 hours | change in the overall plasma elimination profile (across the 25- to 250-mg groups): no change | time of absorption after dosing (administered in the fasted state): ≤ 6 h | dose linearity of pharmacokinetics (first 44 patients, 25 to 250 mg): generally dose-linear pharmacokinetics | concentration at 6 h [1]: 50.3 ng/mL | concentration at 8 h [1]: 41.3 ng/mL | concentration at 10 h [1]: 36.8 ng/mL | concentration at 0 h [2]: 22.2 ng/mL | concentration at 1 h [2]: 50.1 ng/mL | concentration at 2 h [2]: 46.7 ng/mL | concentration at 3 h [2]: 47 ng/mL | concentration at 4 h [2]: 58.3 ng/mL | concentration at 20 h [2]: 19.5 ng/mL | concentration at 24 h (25 mg, 25 mg QD 4/1 (n = 6), nominal time 24 h, read-out: Mean plasma concentration following the last dose on cycle 1 day 28): 21.1 ng/mL | concentration at 48 h [2]: 6.24 ng/mL | concentration at 72 h [2]: 2.61 ng/mL | concentration at 96 h [2]: 1.58 ng/mL | concentration at 144 h [2]: 0.63 ng/mL | AUC(0-t) [3]: 547 ng·h/mL | concentration at 24 h (25 mg, 25 mg QD (4/1), C1D1 (n = 6), read-out: C(trough, 24 h), mean (% CV)): 13.8 ng/mL | Cmax [3]: 55.1 ng/mL | Tmax [3]: 2.8 h | half-life [3]: 11.9 h | AUC(0-t) [4]: 809 ng·h/mL | concentration at 24 h (25 mg, 25 mg QD (4/1), C1D28 (n = 6), read-out: C(trough, 24 h), mean (% CV)): 21.1 ng/mL | Cmax [4]: 72.9 ng/mL | Tmax [4]: 2.7 h | half-life [4]: 24.8 h | Cmax [5]: 61.8 ng/mL | Tmax [5]: 3.2 h | half-life [5]: 17.7 h | concentration at 3 h [6]: 85.6 ng/mL | concentration at 6 h [6]: 71.3 ng/mL | concentration at 8 h [6]: 68.6 ng/mL | concentration at 10 h [6]: 59.4 ng/mL | concentration at 0 h [7]: 37.2 ng/mL | concentration at 1 h [7]: 72.3 ng/mL | concentration at 2 h [7]: 84.5 ng/mL | concentration at 4 h [7]: 81.1 ng/mL | concentration at 20 h [7]: 30.5 ng/mL | concentration at 24 h (50 mg, 50 mg QD 4/1 (n = 5), nominal time 24 h, read-out: Mean plasma concentration following the last dose on cycle 1 day 28): 24.3 ng/mL | concentration at 48 h [7]: 25.4 ng/mL | concentration at 72 h [7]: 7.89 ng/mL | concentration at 96 h [7]: 17 ng/mL | concentration at 144 h [7]: 3.27 ng/mL | AUC(0-t) [8]: 888 ng·h/mL | concentration at 24 h (50 mg, 50 mg QD (4/1), C1D1 (n = 6), read-out: C(trough, 24 h), mean (% CV)): 20.8 ng/mL | Cmax [8]: 84.6 ng/mL | Tmax [8]: 2.8 h | half-life [8]: 10.8 h | AUC(0-t) [9]: 1350 ng·h/mL | concentration at 24 h (50 mg, 50 mg QD (4/1), C1D28 (n = 5), read-out: C(trough, 24 h), mean (% CV)): 50.8 ng/mL | Cmax [9]: 126 ng/mL | Tmax [9]: 6.6 h | half-life [9]: 24 h | AUC(0-t) [10]: 1790 ng·h/mL | concentration at 24 h (50 mg, 50 mg QD (4/1), C2D28 (n = 3), read-out: C(trough, 24 h), mean (% CV)): 44.2 ng/mL | Cmax [10]: 173 ng/mL | Tmax [10]: 3.3 h | half-life [10]: 18.9 h | concentration at 3 h [11]: 337 ng/mL | concentration at 4 h [11]: 344 ng/mL | concentration at 6 h [11]: 312 ng/mL | concentration at 8 h [11]: 261 ng/mL | concentration at 10 h [11]: 208 ng/mL | concentration at 3 h [12]: 460 ng/mL | concentration at 4 h [12]: 560 ng/mL | concentration at 6 h [12]: 707 ng/mL | concentration at 8 h [12]: 395 ng/mL | concentration at 10 h [12]: 566 ng/mL | concentration at 0 h [13]: 121 ng/mL | concentration at 1 h [13]: 218 ng/mL | concentration at 2 h [13]: 326 ng/mL | concentration at 20 h [13]: 311 ng/mL | concentration at 24 h (100 mg, 100 mg QD 4/1 (n = 6), nominal time 24 h, read-out: Mean plasma concentration following the last dose on cycle 1 day 28): 111 ng/mL | concentration at 48 h [13]: 60.8 ng/mL | concentration at 72 h [13]: 16.1 ng/mL | concentration at 96 h [13]: 9.96 ng/mL | concentration at 144 h [13]: 2.94 ng/mL | AUC(0-t) [14]: 2480 ng·h/mL | concentration at 24 h (100 mg, 100 mg QD (4/1), C1D1 (n = 7), read-out: C(trough, 24 h), mean (% CV)): 86.8 ng/mL | Cmax [14]: 270 ng/mL | Tmax [14]: 2.6 h | half-life [14]: 12.5 h | AUC(0-t) [15]: 6050 ng·h/mL | concentration at 24 h (100 mg, 100 mg QD (4/1), C1D28 (n = 6), read-out: C(trough, 24 h), mean (% CV)): 111 ng/mL | Cmax [15]: 413 ng/mL | Tmax [15]: 2.7 h | half-life [15]: 22 h | AUC(0-t) [16]: 2800 ng·h/mL | concentration at 24 h (100 mg, 100 mg QD (4/1), C2D28 (n = 4), read-out: C(trough, 24 h), mean (% CV)): 156 ng/mL | Cmax [16]: 181 ng/mL | Tmax [16]: 13.5 h | half-life [16]: 23 h | AUC(0-t) [17]: 1800 ng·h/mL | concentration at 24 h (100 mg, 100 mg QD (continuous), C1D1 (n = 6), read-out: C(trough, 24 h), mean (% CV)): 34.1 ng/mL | Cmax [17]: 171 ng/mL | Tmax [17]: 4.3 h | half-life [17]: 12.9 h | AUC(0-t) [18]: 2990 ng·h/mL | concentration at 24 h (100 mg, 100 mg QD (continuous), C1D28 (n = 6), read-out: C(trough, 24 h), mean (% CV)): 63 ng/mL | Cmax [18]: 255 ng/mL | Tmax [18]: 3.3 h | half-life [18]: 11.4 h | AUC(0-t) [19]: 3230 ng·h/mL | concentration at 24 h (100 mg, 100 mg QD (continuous), C2D28 (n = 4), read-out: C(trough, 24 h), mean (% CV)): 62.8 ng/mL | Cmax [19]: 250 ng/mL | Tmax [19]: 3.7 h | half-life [19]: 13.8 h | concentration at 0 h [20]: 284 ng/mL | concentration at 1 h [20]: 232 ng/mL | concentration at 2 h [20]: 524 ng/mL | concentration at 20 h [20]: 265 ng/mL | concentration at 24 h (100 mg, 100 mg QD Continuous (n = 4), nominal time 24 h, read-out: Mean plasma concentration following the last dose on cycle 1 day 28): 246 ng/mL
